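Tested at 5 concentrations; 48 h exposure; 96-well plates; endpoints linearly interpolated, else capped at highest concentration. GI50 is the concentration that inhibits growth by half.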 Active and inactive are the calls of the source. No stated cut-off is given here; in the data, active = GI50 up to about 1.1 µM and inactive = higher.
Tests used:
Experiment in all cases: DTP human tumour cell line panel, 48 h
[1] = tested on: 786-0
[2] = tested on: A549
[3] = tested on: ACHN
[4] = tested on: CAKI-1
[5] = tested on: CCRF-CEM
[6] = tested on: COLO 205
[7] = tested on: DLD-1
[8] = tested on: DMS-114
[9] = tested on: DMS-273
[10] = tested on: HCC 2998
[11] = tested on: HCT-116
[12] = tested on: HL-60
[13] = tested on: HOP-62
[14] = tested on: HOP-92
[15] = tested on: HT-29
[16] = tested on: IGROV-1
[17] = tested on: K562
[18] = tested on: KM-20L2
[19] = tested on: KM12
[20] = tested on: LOX IMVI
[21] = tested on: LXFL 529
[22] = tested on: M14
[23] = tested on: M19-MEL
[24] = tested on: MOLT-4
[25] = tested on: Malme-3M
[26] = tested on: NCI-H226
[27] = tested on: NCI-H23
[28] = tested on: NCI-H460
[29] = tested on: NCI-H522
[30] = tested on: OVCAR-3
[31] = tested on: OVCAR-4
[32] = tested on: OVCAR-5
[33] = tested on: OVCAR-8
[34] = tested on: RPMI-8226
[35] = tested on: RXF 393
[36] = tested on: RXF 631
[37] = tested on: SF-268
[38] = tested on: SF-295
[39] = tested on: SF-539
[40] = tested on: SK-MEL-28
[41] = tested on: SK-MEL-5
[42] = tested on: SK-OV-3
[43] = tested on: SN12C
[44] = tested on: SNB-19
[45] = tested on: SNB-75
[46] = tested on: SR
[47] = tested on: SW-620
[48] = tested on: TK-10
[49] = tested on: U-251
[50] = tested on: UACC-257
[51] = tested on: UACC-62
[52] = tested on: UO-31
[53] = tested on: XF498
[54] = tested on: A498
[55] = tested on: EKVX
[56] = tested on: HCT-15
[57] = tested on: SK-MEL-2
[58] = tested on: SNB-78

Measured: GI50

CN(O)C(=O)c1ccccc1
inactive: [1] > 100 µM | [2] > 100 µM | [3] > 100 µM | [4] > 100 µM | [5] > 100 µM | [6] > 100 µM | [7] > 100 µM | [8] > 100 µM | [9] > 100 µM | [10] > 100 µM | [11] > 100 µM | [12] > 100 µM | [13] > 100 µM | [14] > 100 µM | [15] > 100 µM | [16] > 100 µM | [17] > 100 µM | [18] > 100 µM | [19] > 100 µM | [20] > 100 µM | [21] > 100 µM | [22] > 100 µM | [23] > 100 µM | [24] > 100 µM | [25] > 100 µM | [26] > 100 µM | [27] > 100 µM | [28] > 100 µM | [29] > 100 µM | [30] > 100 µM | [31] > 100 µM | [32] > 100 µM | [33] > 100 µM | [34] > 100 µM | [35] > 100 µM | [36] > 100 µM | [37] > 100 µM | [38] > 100 µM | [39] > 100 µM | [40] > 100 µM | [41] > 100 µM | [42] > 100 µM | [43] > 100 µM | [44] > 100 µM | [45] > 100 µM | [46] > 100 µM | [47] > 100 µM | [48] > 100 µM | [49] > 100 µM | [50] > 100 µM | [51] > 100 µM | [52] > 100 µM | [53] > 100 µM

O=c1c(Br)cc2nc3ccccc3sc-2c1Br
> 68.7 µM: [56]
inactive: [1] 15.4 µM | [54] > 100 µM | [2] > 94.8 µM | [3] > 100 µM | [4] > 100 µM | [5] 23.8 µM | [6] 36.3 µM | [7] > 100 µM | [8] 17.9 µM | [9] > 100 µM | [55] > 74.6 µM | [10] > 100 µM | [11] > 100 µM | [12] 16.3 µM | [13] > 100 µM | [14] 50 µM | [15] > 100 µM | [16] > 100 µM | [17] 18.7 µM | [18] > 100 µM | [19] > 100 µM | [20] 61.7 µM | [21] 28.1 µM | [22] > 100 µM | [23] 17.5 µM | [24] 22.2 µM | [25] > 100 µM | [26] > 100 µM | [27] 29.9 µM | [28] > 100 µM | [29] 15.8 µM | [30] 16.9 µM | [31] 24 µM | [32] > 100 µM | [33] 19.5 µM | [34] 18.5 µM | [35] > 100 µM | [36] > 100 µM | [37] 72.1 µM | [38] > 100 µM | [39] > 83.9 µM | [40] > 100 µM | [57] > 100 µM | [41] 29.5 µM | [42] > 100 µM | [43] > 100 µM | [44] > 100 µM | [45] > 100 µM | [58] > 100 µM | [46] 53.5 µM | [47] 68.1 µM | [48] > 100 µM | [49] > 80.7 µM | [50] 31.3 µM | [51] 25 µM | [52] > 100 µM | [53] 27.2 µM

— ChEMBL document CHEMBL1201862, “PubChem BioAssay data set” (2004)
